Source: ChEMBL document CHEMBL3991601, “The target landscape of clinical kinase drugs” (Science, 2017)
Activity calls are given as the source filed them.

What was measured:
[1] = biological target: T1, Cytochrome c1, heme protein, mitochondrial (Homo sapiens, UniProt P08574)
T1 sequence (P08574 whole entry): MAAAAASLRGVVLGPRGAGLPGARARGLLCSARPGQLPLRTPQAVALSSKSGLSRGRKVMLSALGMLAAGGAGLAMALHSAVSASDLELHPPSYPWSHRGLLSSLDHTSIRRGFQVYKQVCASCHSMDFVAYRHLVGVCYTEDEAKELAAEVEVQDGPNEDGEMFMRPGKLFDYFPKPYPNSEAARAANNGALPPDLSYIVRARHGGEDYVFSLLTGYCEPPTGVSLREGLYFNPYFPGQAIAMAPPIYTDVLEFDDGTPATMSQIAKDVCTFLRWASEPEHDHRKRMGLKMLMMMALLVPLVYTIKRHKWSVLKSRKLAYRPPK

LIM domain kinase 2 = LIM domain kinase 2 (Homo sapiens, UniProt P53671)
Chain of LIM domain kinase 2 (P53671 whole entry, the tested form may be a part): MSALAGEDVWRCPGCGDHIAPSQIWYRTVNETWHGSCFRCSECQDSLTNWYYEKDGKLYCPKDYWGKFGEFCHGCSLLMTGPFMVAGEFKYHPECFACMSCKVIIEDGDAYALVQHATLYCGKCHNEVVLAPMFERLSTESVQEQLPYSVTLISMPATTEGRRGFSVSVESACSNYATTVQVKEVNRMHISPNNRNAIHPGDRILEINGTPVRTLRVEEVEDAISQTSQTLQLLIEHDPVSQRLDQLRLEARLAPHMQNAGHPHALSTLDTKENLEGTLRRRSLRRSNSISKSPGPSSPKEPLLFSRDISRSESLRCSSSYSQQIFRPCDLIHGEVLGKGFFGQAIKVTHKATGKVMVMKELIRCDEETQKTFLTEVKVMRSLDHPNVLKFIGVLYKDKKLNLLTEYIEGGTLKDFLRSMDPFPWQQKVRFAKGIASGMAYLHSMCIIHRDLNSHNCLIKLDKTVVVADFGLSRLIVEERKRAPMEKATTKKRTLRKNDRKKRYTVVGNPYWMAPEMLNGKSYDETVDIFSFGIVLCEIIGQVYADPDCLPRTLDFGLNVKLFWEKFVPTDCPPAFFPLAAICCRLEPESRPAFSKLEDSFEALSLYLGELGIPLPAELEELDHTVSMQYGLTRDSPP

[2] = biological target: T2, Acyl-CoA dehydrogenase family member 11 (Homo sapiens, UniProt Q709F0)
T2 sequence (Q709F0 whole entry): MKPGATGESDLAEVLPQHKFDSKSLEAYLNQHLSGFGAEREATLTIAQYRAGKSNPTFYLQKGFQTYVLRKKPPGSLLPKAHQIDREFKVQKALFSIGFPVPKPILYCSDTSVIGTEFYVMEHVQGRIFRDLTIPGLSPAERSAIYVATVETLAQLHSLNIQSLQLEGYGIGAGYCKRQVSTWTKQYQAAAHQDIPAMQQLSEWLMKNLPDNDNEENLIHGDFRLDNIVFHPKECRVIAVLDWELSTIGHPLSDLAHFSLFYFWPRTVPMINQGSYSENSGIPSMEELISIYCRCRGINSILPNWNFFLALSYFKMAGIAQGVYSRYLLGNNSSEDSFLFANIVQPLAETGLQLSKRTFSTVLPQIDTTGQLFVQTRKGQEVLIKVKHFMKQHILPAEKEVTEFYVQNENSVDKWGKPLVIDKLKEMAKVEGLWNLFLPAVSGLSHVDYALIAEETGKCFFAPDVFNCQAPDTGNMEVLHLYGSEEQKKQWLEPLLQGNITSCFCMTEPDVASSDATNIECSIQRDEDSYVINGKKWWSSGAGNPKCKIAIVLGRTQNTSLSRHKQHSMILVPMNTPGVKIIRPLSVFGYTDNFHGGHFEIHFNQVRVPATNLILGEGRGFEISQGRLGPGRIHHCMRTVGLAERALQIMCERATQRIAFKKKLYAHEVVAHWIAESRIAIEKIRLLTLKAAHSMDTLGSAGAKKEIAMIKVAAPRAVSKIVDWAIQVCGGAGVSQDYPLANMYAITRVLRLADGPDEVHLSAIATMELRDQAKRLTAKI

Midasin = Midasin (Homo sapiens, UniProt Q9NU22)
[3] = biological target: T3, Ras-related protein Rab-10 (Homo sapiens, UniProt P61026)
T3 sequence (P61026 whole entry): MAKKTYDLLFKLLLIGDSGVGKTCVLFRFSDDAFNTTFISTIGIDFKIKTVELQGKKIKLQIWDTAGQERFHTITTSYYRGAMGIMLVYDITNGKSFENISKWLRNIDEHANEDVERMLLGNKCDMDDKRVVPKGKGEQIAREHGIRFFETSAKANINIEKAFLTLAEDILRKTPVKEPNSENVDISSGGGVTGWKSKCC

[4] = biological target: Bone morphogenetic protein receptor type-1B (Homo sapiens, UniProt O00238)
Chain of Bone morphogenetic protein receptor type-1B (O00238 whole entry): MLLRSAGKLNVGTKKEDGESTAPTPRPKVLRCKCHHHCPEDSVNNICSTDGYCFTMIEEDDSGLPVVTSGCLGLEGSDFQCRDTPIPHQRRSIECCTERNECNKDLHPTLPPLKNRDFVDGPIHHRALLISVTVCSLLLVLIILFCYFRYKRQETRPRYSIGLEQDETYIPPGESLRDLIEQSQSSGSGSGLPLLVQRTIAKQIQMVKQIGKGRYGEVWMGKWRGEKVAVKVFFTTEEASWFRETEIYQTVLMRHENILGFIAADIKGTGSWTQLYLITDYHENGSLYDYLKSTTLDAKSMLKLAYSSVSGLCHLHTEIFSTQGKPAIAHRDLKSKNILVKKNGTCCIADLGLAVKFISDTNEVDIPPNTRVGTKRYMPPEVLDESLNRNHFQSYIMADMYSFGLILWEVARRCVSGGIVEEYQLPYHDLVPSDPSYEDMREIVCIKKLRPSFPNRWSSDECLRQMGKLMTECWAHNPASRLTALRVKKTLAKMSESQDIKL

Myosin-14 = Myosin-14 (Homo sapiens, UniProt Q7Z406)
Ephrin type-A receptor 5 = Ephrin type-A receptor 5 (Homo sapiens, UniProt P54756)
Chain of Ephrin type-A receptor 5 (P54756 whole entry): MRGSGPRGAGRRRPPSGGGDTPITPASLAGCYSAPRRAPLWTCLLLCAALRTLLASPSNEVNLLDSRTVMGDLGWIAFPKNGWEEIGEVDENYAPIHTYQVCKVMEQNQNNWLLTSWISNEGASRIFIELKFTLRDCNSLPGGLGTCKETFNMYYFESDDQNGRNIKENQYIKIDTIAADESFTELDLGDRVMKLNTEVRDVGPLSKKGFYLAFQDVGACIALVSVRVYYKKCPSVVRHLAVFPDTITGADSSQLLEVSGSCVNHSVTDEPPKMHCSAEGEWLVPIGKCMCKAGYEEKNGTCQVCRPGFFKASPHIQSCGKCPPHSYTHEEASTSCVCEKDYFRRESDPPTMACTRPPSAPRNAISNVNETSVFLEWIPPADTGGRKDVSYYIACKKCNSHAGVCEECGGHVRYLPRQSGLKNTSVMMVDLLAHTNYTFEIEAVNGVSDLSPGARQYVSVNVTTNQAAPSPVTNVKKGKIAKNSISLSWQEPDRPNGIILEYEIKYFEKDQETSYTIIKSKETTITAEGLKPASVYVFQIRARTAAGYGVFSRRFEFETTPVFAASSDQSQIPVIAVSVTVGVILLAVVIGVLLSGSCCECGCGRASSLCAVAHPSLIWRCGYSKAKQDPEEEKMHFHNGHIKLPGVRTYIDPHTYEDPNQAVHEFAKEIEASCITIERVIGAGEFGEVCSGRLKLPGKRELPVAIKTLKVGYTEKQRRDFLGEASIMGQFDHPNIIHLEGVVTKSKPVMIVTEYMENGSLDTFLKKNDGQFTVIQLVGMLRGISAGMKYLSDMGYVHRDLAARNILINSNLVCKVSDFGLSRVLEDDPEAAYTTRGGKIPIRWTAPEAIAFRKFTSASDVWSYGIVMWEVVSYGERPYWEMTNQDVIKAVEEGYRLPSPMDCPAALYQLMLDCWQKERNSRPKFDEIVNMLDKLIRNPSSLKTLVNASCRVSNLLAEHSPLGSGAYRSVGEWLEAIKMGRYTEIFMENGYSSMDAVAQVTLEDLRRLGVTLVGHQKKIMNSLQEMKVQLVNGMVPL

[5] = biological target: T4, Ferrochelatase, mitochondrial (Homo sapiens, UniProt P22830)
T4 sequence (P22830 whole entry): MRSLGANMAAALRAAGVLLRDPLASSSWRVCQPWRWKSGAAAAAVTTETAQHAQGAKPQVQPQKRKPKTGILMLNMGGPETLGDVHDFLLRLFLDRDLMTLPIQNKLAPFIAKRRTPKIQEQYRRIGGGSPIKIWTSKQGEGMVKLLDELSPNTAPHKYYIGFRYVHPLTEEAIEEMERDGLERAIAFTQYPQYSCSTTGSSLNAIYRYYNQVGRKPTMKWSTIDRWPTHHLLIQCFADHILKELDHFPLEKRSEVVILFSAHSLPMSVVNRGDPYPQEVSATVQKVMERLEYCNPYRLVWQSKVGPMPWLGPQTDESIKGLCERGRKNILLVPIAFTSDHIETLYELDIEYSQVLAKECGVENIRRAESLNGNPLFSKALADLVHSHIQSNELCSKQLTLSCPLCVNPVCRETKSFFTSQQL

[6] = biological target: ATP-dependent RNA helicase DDX3X (Homo sapiens, UniProt O00571)
Chain of ATP-dependent RNA helicase DDX3X (O00571 whole entry): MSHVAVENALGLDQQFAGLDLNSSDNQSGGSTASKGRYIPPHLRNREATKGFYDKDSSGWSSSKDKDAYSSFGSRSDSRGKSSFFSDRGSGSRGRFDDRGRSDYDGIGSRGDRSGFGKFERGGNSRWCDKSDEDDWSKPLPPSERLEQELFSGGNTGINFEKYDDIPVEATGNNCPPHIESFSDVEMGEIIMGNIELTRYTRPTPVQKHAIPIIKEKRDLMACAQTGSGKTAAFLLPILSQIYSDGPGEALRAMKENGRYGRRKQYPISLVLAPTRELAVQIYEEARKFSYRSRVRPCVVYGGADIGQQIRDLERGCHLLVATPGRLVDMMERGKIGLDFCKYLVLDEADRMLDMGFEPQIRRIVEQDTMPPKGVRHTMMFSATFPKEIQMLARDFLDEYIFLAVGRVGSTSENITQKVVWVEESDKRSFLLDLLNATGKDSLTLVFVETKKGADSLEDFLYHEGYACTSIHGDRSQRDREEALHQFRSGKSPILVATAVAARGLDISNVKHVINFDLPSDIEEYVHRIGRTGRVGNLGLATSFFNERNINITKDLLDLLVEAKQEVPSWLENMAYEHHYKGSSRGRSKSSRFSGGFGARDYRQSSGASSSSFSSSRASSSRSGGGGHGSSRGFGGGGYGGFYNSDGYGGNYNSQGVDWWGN

[7] = biological target: T5, Peroxisomal acyl-coenzyme A oxidase 1 (Homo sapiens, UniProt Q15067)
T5 sequence (Q15067 whole entry): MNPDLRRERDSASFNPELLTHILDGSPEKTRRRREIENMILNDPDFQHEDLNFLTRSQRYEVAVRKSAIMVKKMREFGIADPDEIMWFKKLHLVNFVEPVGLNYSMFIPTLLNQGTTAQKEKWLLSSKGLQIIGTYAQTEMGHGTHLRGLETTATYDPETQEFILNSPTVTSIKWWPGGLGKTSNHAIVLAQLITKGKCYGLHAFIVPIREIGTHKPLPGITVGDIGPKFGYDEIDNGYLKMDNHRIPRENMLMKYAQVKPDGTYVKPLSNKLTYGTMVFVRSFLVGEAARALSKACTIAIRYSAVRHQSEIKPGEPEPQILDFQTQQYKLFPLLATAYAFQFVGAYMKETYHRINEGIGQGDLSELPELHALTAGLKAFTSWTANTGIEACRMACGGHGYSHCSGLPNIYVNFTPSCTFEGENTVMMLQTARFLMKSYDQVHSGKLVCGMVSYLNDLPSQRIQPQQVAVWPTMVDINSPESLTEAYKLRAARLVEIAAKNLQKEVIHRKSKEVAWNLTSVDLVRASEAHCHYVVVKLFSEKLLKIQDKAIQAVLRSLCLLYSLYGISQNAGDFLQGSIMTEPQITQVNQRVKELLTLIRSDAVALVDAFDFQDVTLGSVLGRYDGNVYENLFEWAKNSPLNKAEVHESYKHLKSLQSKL

[8] = biological target: Tyrosine-protein kinase FRK (Homo sapiens, UniProt P42685)
Chain of Tyrosine-protein kinase FRK (P42685 whole entry): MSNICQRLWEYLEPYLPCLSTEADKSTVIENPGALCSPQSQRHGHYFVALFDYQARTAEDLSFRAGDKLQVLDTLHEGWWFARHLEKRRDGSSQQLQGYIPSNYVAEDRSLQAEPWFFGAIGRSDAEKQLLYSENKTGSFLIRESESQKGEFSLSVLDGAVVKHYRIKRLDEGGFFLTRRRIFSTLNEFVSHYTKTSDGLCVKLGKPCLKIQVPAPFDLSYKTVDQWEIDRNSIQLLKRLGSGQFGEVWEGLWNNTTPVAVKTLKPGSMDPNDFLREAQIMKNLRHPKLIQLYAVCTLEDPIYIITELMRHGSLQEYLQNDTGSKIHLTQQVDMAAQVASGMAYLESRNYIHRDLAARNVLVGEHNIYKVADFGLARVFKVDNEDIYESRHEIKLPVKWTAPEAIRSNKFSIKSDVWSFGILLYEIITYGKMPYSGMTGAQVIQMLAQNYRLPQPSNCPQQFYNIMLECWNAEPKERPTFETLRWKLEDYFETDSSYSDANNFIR

[9] = biological target: MAP/microtubule affinity-regulating kinase 3 (Homo sapiens, UniProt P27448)
Chain of MAP/microtubule affinity-regulating kinase 3 (P27448 whole entry): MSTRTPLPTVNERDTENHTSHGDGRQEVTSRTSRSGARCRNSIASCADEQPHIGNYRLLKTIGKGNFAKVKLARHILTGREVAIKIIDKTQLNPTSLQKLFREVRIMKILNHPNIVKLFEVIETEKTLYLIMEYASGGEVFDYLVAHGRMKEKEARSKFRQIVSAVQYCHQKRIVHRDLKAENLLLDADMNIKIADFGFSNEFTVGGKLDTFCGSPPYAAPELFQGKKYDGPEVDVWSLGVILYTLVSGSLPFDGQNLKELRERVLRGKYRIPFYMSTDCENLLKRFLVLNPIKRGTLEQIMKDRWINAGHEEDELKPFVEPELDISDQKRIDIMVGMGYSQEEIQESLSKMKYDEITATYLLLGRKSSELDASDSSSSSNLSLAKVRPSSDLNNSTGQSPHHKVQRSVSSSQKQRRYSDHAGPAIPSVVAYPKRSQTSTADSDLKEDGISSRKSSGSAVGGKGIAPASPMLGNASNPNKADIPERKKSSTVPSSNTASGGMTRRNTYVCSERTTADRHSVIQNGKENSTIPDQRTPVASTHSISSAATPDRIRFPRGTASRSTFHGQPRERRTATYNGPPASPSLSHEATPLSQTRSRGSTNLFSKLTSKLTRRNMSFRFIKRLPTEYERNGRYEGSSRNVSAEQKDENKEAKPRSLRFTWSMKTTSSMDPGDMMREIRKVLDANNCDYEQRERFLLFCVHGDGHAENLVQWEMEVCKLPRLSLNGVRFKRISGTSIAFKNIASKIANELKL

[10] = biological target: Fibroblast growth factor receptor 1 (Homo sapiens, UniProt P11362)
Chain of Fibroblast growth factor receptor 1 (P11362 whole entry): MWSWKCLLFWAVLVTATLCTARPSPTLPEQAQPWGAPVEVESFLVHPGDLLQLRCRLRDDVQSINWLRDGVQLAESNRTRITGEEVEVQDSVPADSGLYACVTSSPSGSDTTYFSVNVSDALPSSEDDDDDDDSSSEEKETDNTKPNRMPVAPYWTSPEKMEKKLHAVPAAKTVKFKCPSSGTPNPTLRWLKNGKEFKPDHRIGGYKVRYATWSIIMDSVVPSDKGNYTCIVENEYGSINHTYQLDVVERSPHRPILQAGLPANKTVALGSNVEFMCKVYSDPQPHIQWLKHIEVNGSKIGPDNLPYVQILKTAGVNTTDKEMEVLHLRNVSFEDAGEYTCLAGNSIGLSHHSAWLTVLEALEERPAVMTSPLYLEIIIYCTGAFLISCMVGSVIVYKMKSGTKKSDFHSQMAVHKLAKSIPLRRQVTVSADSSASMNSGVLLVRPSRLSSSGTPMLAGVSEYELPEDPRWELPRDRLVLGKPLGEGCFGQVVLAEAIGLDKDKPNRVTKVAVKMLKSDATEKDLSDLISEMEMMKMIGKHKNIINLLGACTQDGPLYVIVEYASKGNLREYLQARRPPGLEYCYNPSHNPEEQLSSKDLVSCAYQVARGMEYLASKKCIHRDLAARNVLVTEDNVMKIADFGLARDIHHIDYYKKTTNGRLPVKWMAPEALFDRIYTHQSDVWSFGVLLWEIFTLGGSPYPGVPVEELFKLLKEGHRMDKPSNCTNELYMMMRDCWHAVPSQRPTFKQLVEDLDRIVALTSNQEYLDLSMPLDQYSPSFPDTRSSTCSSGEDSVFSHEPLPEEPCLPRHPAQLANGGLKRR
Note: in the data inactive means no Kd found up to 30 µM.

SMILES	Kd [1]	Kd (LIM domain kinase 2)	Kd [2]	Kd (Midasin)	Kd [3]	Kd [4]	Kd (Myosin-14)	Kd (Ephrin type-A receptor 5)	Kd [5]	Kd [6]	Kd [7]	Kd [8]	Kd [9]	Kd [10]
COc1cc(Nc2ncc3c(n2)-c2ccc(Cl)cc2C(c2c(F)cccc2OC)=NC3)ccc1C(=O)O [ALISERTIB]	> 30 µM (inactive)	> 30 µM (inactive)	> 30 µM (inactive)	> 30 µM (inactive)	1.35 µM	> 30 µM (inactive)	> 30 µM (inactive)	> 30 µM (inactive)	> 30 µM (inactive)	> 30 µM (inactive)	> 30 µM (inactive)			
O=C(Nc1c[nH]nc1-c1nc2cc(CN3CCOCC3)ccc2[nH]1)NC1CC1 [AT-9283]	> 30 µM (inactive)	4.43 µM (active)	> 30 µM (inactive)	> 30 µM (inactive)	> 30 µM (inactive)	0.021 µM (active)	> 30 µM (inactive)	> 30 µM (inactive)	> 30 µM (inactive)	> 30 µM (inactive)	> 30 µM (inactive)	> 30 µM (inactive)		
CNC(=O)c1ccccc1Sc1ccc2c(/C=C/c3ccccn3)n[nH]c2c1 [AXITINIB]	> 30 µM (inactive)		> 30 µM (inactive)	> 30 µM (inactive)	> 30 µM (inactive)		> 30 µM (inactive)		6.84 µM (active)	> 30 µM (inactive)	> 30 µM (inactive)			
C[C@@H](Oc1cc(-n2cnc3ccc(CN4CCN(C)CC4)cc32)sc1C(N)=O)c1ccccc1C(F)(F)F [GSK-461364]	> 30 µM (inactive)		> 30 µM (inactive)	> 30 µM (inactive)	> 30 µM (inactive)		> 30 µM (inactive)		> 30 µM (inactive)	> 30 µM (inactive)	> 30 µM (inactive)			
CCn1cc(-c2ccnc3[nH]c(-c4cccc(CN(C)C)c4)cc23)c(-c2ccc(NC(=O)N(C)C)cc2)n1 [GSK-1070916]	> 30 µM (inactive)	> 30 µM (inactive)	> 30 µM (inactive)	> 30 µM (inactive)	> 30 µM (inactive)		> 30 µM (inactive)	> 30 µM (inactive)	2.41 µM (active)	> 30 µM (inactive)	> 30 µM (inactive)	> 30 µM (inactive)		
Cc1[nH]c(/C=C2\C(=O)Nc3ccccc32)c(C)c1CCC(=O)O [ORANTINIB]	> 30 µM (inactive)	> 30 µM (inactive)	> 30 µM (inactive)	> 30 µM (inactive)	> 30 µM (inactive)	> 30 µM (inactive)	> 30 µM (inactive)	> 30 µM (inactive)	> 30 µM (inactive)	> 30 µM (inactive)	> 30 µM (inactive)			
NC(=O)c1c(OCc2c(F)cc(Br)cc2F)nsc1NC(=O)NCCCCN1CCCC1 [OSI-632]	> 30 µM (inactive)	> 30 µM (inactive)	> 30 µM (inactive)	> 30 µM (inactive)	> 30 µM (inactive)	> 30 µM (inactive)	> 30 µM (inactive)	> 30 µM (inactive)	> 30 µM (inactive)	> 30 µM (inactive)	> 30 µM (inactive)			
Cc1cc(Nc2ncnc3ccc(NC4=NC(C)(C)CO4)cc23)ccc1Oc1ccn2ncnc2c1 [TUCATINIB]	> 30 µM (inactive)	> 30 µM (inactive)	> 30 µM (inactive)	> 30 µM (inactive)	> 30 µM (inactive)	> 30 µM (inactive)	0.188 µM	> 30 µM (inactive)	3.91 µM (active)	> 30 µM (inactive)		> 30 µM (inactive)	> 30 µM (inactive)	> 30 µM (inactive)

Next, values leading:

Kd [1]	Kd (LIM domain kinase 2)	Kd [2]	Kd (Midasin)	Kd [3]	Kd [4]	Kd (Myosin-14)	Kd (Ephrin type-A receptor 5)	Kd [5]	Kd [6]	Kd [7]	Kd [8]	Kd [9]	Kd [10]	SMILES
> 30 µM (inactive)	> 30 µM (inactive)	> 30 µM (inactive)	> 30 µM (inactive)	> 30 µM (inactive)	> 30 µM (inactive)		> 30 µM (inactive)	> 30 µM (inactive)	> 30 µM (inactive)	> 30 µM (inactive)				CC(=O)NCC(=O)N1[C@@H]2CC[C@H]1c1ccc(Nc3ncc(C(F)(F)F)c(NC4CCC4)n3)cc12 [PF-03814735]
> 30 µM (inactive)	> 30 µM (inactive)	> 30 µM (inactive)	> 30 µM (inactive)	> 30 µM (inactive)	> 30 µM (inactive)	> 30 µM (inactive)	> 30 µM (inactive)	> 30 µM (inactive)	> 30 µM (inactive)		> 30 µM (inactive)	> 30 µM (inactive)	> 30 µM (inactive)	CO[C@H]1C[C@@H]2CC[C@@H](C)[C@@](O)(O2)C(=O)C(=O)N2CCCC[C@H]2C(=O)O[C@H]([C@H](C)C[C@@H]2CC[C@@H](OP(C)(C)=O)[C@H](OC)C2)CC(=O)[C@H](C)/C=C(\C)[C@@H](O)[C@@H](OC)C(=O)[C@H](C)C[C@H](C)/C=C/C=C/C=C/1C [RIDAFOROLIMUS]
> 30 µM (inactive)		> 30 µM (inactive)	> 30 µM (inactive)	> 30 µM (inactive)		> 30 µM (inactive)		> 30 µM (inactive)	> 30 µM (inactive)	> 30 µM (inactive)				N#CC[C@H](C1CCCC1)n1cc(-c2ncnc3[nH]ccc23)cn1 [RUXOLITINIB]
> 30 µM (inactive)	> 30 µM (inactive)	> 30 µM (inactive)	> 30 µM (inactive)	> 30 µM (inactive)	> 30 µM (inactive)	> 30 µM (inactive)	> 30 µM (inactive)	> 30 µM (inactive)	> 30 µM (inactive)		> 30 µM (inactive)	> 30 µM (inactive)	> 30 µM (inactive)	O=C1NC(=O)[C@@H](c2cn3c4c(cccc24)CCC3)[C@@H]1c1c[nH]c2ccccc12 [TIVANTINIB]
